For assay [1], the system named is UM-UC-14 (Bladder Cancer), FGFR3(S249C). In words: Cancer cell viability assay (Cell Titer-Glo), UM-UC-14. Type of assay: cell-based. The settings on record: UMUC14, UM-UC-14 cells, 72 hours. From the text:
(§1) RT112/84, UM-UC-14, SNU-16 and KG-1 Cancer Cell Line Cell Viability Assays
(§2) To detect the change of intracellular ATP by Cell Titer-Glo@ and to evaluate the inhibitory effect of the compounds on cancer cell lines by determining the in vitro IC50 value of the compounds.
(§3) Cell Titer-Glo@ 2.0 Luminescent cell viability assay reagent was purchased from Promega (Madison, WI). RT112/84, SNU-16, and KG-1 cell lines were purchased from American Type Culture Collection (Manassas, VA). UM-UC-14 cell line was purchased from Sigma (St. Louis, MO). RT112/84, UM-UC-14, SNU-16, and KG-1 cells were cultured in RPMI1640 media supplemented with 10% fetal bovine serum. Cultures were maintained at 37° C. in a humidified atmosphere of 5% CO2 and 95% air.
(§4) Cell Viability Assay Procedure: Cells were plated in 96-well clear bottom/white plates (Corning #3903) at 10,000 cells/well in 100 μl of media, incubated overnight. The next day, test compound DMSO stock solutions were made at 10 mM and 2 μM final concentration. Compounds were then added to cells in a 9-dose, […] dilution series starting at 30 μM with an HP 300e Digital Dispenser (each dose was applied in triplicate). DMSO was backfilled to each well up to 301 nL total volume of test compound+DMSO, and a total of 301 nL DMSO was added to a control/no test compound well in triplicate. The cells in cell culture plates were incubated with the compounds at 37° C. and 5% CO2 for 72 hours. Then 50 μl of Cell Titer Glo 2.0 reagent was added to each well of the cell culture plates. The contents were covered from light and mixed on an orbital shaker at room temperature for 10 min. Luminescence was recorded by a Synergy H1 Microplate Reader (Biotek, Winooski, VT). Cells were assessed as a percentage of DMSO only treated control cells. Curves were plotted and IC50 values were calculated using the GraphPad Prism 8 program based on a sigmoidal dose-response equation (4 parameter).
(In general: Cellular ATP, detected with luciferase, serves as a proxy for viable cell number.)

Another assay deals with T1, FGFR3 (Homo sapiens, UniProt P22607).
T1 construct: made in house; host or cells: E. coli derived from BL21, infected with T7 phage
The experiment in a line: Kinase binding assay (kinase-tagged T7 phage, affinity beads, qPCR readout), FGFR3. The settings on record: FGFR binding data. The essentials: (§5)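 Competition binding: T7 phage-tagged kinases incubated with immobilized biotinylated ligand beads and test compound (11-point 3-fold series, 0.9% DMSO final) for 1 h at room temperature. Bound kinase eluted and quantified by qPCR. Kd from Hill equation fit, slope fixed at −1.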
In general terms: Quantitative PCR measures a nucleic acid by following its amplification.

The target of the next assay is T2, FGFR3 (V555M) (Homo sapiens, UniProt P22607, V555M).
T2 construct: made in house; host or cells: E. coli derived from BL21, infected with T7 phage
The experiment in a line: Kinase binding assay (kinase-tagged T7 phage, affinity beads, qPCR readout), FGFR3 (V555M). The conditions noted are these: FGFR binding data. In outline: as §5

In assay [2] the test system is RT112/84 (Bladder Cancer), FGFR3-TACC3 fusion. In words: Cancer cell viability assay (Cell Titer-Glo), RT112/84. Type of assay: cell-based. The conditions noted are these: Homo sapiens, RT112/84 cells, 72 hours.
From the text: as §1, §2, §3, §4

In the next assay the target is T3, FGFR1 (Homo sapiens, UniProt P11362).
T3 construct: made in house; host or cells: E. coli derived from BL21, infected with T7 phage
The experiment in a line: Kinase binding assay (kinase-tagged T7 phage, affinity beads, qPCR readout), FGFR1. The settings on record: FGFR binding data. The essentials: as §5

Another assay concerns the target T4, FGFR2 (Homo sapiens, UniProt P21802).
T4 construct: made in house; host or cells: E. coli derived from BL21, infected with T7 phage
In words: Kinase binding assay (kinase-tagged T7 phage, affinity beads, qPCR readout), FGFR2. The conditions noted are these: FGFR binding data. The essentials: as §5

Assay [3] concerns KG-1 (Acute Myeloid Leukemia), FGFR1OP2-FGFR1 fusion. In words: Cancer cell viability assay (Cell Titer-Glo), KG-1. The conditions noted are these: Homo sapiens, KG-1 cells, 72 hours. In kind it is cell-based.
From the text: as §1, §2, §3, §4

Assay [4] deals with SNU-16 (Gastric Carcinoma), FGFR2 amplification. The experiment in a line: Cancer cell viability assay (Cell Titer-Glo), SNU-16. Type of assay: cell-based. The conditions noted are these: Homo sapiens, SNU-16 cells, 72 hours, read-out: SNU16 FGFR2 (IC50 nM). The essentials: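 Cells seeded at 10,000/well in RPMI1640 with 10% FBS, then exposed 72 h at 37° C. to a 9-point 10-fold dilution series from 30 μM, in triplicate. Viability read as ATP luminescence (CellTiter-Glo 2.0) as percent of DMSO control; IC50 from 4-parameter sigmoidal fit.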

T1 sequence (P22607 23-806): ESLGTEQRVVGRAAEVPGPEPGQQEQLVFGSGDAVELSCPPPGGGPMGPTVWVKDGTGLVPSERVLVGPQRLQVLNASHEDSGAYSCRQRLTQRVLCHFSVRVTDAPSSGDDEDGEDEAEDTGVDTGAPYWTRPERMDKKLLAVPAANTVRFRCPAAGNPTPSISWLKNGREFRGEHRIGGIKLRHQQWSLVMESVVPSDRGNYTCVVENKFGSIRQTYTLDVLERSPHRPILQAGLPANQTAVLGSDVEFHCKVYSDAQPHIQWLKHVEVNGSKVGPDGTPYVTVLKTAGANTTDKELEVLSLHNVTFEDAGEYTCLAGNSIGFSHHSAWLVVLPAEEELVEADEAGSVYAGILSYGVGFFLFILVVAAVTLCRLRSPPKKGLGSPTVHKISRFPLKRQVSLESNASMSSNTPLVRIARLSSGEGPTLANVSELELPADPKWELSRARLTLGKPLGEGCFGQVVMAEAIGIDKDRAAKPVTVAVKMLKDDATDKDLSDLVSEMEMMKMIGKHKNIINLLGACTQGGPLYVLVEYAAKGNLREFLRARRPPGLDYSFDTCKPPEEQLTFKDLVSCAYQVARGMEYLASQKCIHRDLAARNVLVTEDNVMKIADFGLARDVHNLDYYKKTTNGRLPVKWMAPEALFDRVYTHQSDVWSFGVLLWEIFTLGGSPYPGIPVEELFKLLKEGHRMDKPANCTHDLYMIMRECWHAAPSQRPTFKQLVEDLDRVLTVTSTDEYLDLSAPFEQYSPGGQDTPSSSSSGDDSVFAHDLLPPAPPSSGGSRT
T4 sequence (P21802 22-821): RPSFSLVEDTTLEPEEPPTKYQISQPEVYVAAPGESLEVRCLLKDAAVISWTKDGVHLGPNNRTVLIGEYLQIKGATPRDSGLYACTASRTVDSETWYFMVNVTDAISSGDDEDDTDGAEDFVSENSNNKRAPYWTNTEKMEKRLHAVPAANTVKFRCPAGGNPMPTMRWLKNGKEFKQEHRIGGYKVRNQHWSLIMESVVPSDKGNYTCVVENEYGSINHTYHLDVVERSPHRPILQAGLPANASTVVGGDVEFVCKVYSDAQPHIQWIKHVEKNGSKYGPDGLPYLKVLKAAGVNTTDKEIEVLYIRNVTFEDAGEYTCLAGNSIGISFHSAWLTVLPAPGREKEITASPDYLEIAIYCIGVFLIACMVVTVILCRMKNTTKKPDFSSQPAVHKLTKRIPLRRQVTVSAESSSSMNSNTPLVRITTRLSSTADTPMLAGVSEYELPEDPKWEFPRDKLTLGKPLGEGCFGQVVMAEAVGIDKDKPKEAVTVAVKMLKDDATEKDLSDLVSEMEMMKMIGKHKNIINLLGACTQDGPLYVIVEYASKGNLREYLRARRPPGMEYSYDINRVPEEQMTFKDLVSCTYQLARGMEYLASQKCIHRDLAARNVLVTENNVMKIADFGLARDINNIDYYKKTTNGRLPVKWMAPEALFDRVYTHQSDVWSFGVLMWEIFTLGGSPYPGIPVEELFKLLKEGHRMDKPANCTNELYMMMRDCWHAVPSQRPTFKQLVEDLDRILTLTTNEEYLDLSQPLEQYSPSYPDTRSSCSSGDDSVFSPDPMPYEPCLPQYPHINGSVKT
T2 sequence (P22607 23-806 V555M): as the sequence (P22607 23-806) above, with V533M counted along it
T3 sequence (P11362 22-822): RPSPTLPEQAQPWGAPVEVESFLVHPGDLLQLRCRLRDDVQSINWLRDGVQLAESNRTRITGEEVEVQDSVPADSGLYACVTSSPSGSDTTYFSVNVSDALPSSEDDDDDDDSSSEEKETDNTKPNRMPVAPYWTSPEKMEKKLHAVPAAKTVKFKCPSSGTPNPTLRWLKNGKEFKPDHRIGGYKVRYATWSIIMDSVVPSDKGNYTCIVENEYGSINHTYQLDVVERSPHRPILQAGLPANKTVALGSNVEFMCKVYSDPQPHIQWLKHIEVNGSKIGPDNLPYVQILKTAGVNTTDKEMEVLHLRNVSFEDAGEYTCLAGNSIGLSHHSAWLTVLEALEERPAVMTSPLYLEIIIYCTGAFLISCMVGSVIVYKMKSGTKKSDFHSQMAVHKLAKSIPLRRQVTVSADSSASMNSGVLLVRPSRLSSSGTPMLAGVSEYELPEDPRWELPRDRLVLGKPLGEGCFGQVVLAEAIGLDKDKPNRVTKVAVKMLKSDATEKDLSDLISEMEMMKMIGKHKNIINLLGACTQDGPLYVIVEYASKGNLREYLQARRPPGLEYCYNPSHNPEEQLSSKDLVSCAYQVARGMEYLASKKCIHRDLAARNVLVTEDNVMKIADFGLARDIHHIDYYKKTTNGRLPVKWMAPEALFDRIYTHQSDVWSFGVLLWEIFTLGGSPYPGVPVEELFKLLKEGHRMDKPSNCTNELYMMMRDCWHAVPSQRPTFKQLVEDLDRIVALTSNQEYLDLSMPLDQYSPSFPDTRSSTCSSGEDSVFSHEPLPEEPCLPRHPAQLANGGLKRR

One may read the IC50 as the midpoint of a concentration-inhibition curve. As a reminder, the Kd is a measure of binding affinity in units of concentration. For `C=CC(=O)Nc1cnc2c(c1)c(C)cn2-c1nc(Nc2ccnn2C)ncc1C` [Example 85, N-[3-methyl-1-[5-methyl-2-[(2-methylpyrazol-3-yl)amino]pyrimidin-4-yl]pyrrolo[2,3-b]pyridin-5-yl]prop-2-enamide], the IC50 in assay [1], in assay [2] and in assay [3] was 0.1 to 100 nM in each case. Also, the Kd at FGFR3, on FGFR3 (V555M), at FGFR1 and on FGFR2 was 0.1 to 100 nM in each case.
`C=CC(=O)Nc1ccc2c(c1)c(C)cn2-c1nc(Nc2ccnn2C)ncc1Cl` [Example 55, N-[1-[5-chloro-2-[(2-methylpyrazol-3-yl)amino]pyrimidin-4-yl]-3-methyl-indol-5-yl]prop-2-enamide]: the IC50 in assay [1], in assay [2] and in assay [3] was 0.1 to 100 nM each time. Besides, the Kd on FGFR3, at FGFR3 (V555M), at FGFR1 and on FGFR2 was 0.1 to 100 nM in each case.
Consider `C=CC(=O)Nc1ccc2c(c1)c(C)cn2-c1nc(Nc2cnn(C)c2)ncc1C` [Example 8, N-[3-Methyl-1-[5-methyl-2-[(1-methylpyrazol-4-yl)amino]pyrimidin-4-yl]indol-5-yl]prop-2-enamide], for which the half-inhibitory concentration (IC50) in assay [1], in assay [2] and in assay [3] was 0.1 to 100 nM throughout. The Kd at FGFR3, at FGFR3 (V555M), at FGFR1 and on FGFR2 was 0.1 to 100 nM in each case.
Consider `C=CC(=O)Nc1ccc2c(c1)c(C)cn2-c1nc(Nc2cnn(CCCO)c2)ncc1F` [Example 160, N-[1-[5-fluoro-2-[[1-(3-hydroxypropyl)pyrazol-4-yl]amino]pyrimidin-4-yl]-3-methyl-indol-5-yl]prop-2-enamide], for which the IC50 in assay [1], in assay [2] and in assay [4] was 0.1 to 100 nM in each case. Also, the Kd at FGFR3, on FGFR3 (V555M), on FGFR1 and at FGFR2 was 0.1 to 100 nM each time.
As for `C=CC(=O)Nc1ccc2c(-c3nc(Nc4ccc(N5CCOCC5)cc4)ncc3Cl)cn(C)c2c1` [Example 27, N-[3-[5-chloro-2-(4-morpholinoanilino)pyrimidin-4-yl]-1-methyl-indol-6-yl]prop-2-enamide], the half-maximal inhibitory concentration (IC50) in assay [1], in assay [2] and in assay [3] was 0.1 to 100 nM each time. Further, the Kd at FGFR3, at FGFR3 (V555M), at FGFR1 and at FGFR2 was 0.1 to 100 nM each time.
As to `C=CC(=O)Nc1ccc2c(c1)c(C)cn2-c1nc(Nc2cnn(CCOC)c2)ncc1F` [Example 163, N-[1-[5-fluoro-2-[[1-(2-methoxyethyl)pyrazol-4-yl]amino]pyrimidin-4-yl]-3-methyl-indol-5-yl]prop-2-enamide], the IC50 in assay [1], in assay [2] and in assay [4] was 0.1 to 100 nM throughout. The Kd on FGFR3, on FGFR3 (V555M), on FGFR1 and at FGFR2 was 0.1 to 100 nM throughout.
`C=CC(=O)Nc1ccc2c(c1)c(C)cn2-c1nc(Nc2cnn(CC(C)(C)O)c2)ncc1F` [Example 181, N-[1-[5-fluoro-2-[[1-(2-hydroxy-2-methyl-propyl)pyrazol-4-yl]amino]pyrimidin-4-yl]-3-methyl-indol-5-yl]prop-2-enamide]: the IC50 in assay [1], in assay [2] and in assay [4] was 0.1 to 100 nM throughout. In addition, the Kd at FGFR3, at FGFR3 (V555M), on FGFR1 and on FGFR2 was 0.1 to 100 nM in each case.
On to `C=CC(=O)Nc1ccc2c(c1)c(C)cn2-c1nc(Nc2cn(C)nc2C)ncc1F` [Example 167, N-[1-[2-[(1,3-Dimethylpyrazol-4-yl)amino]-5-fluoro-pyrimidin-4-yl]-3-methyl-indol-5-yl]prop-2-enamide], for which the IC50 in assay [1], in assay [2] and in assay [4] was 0.1 to 100 nM in each case. Besides, the Kd on FGFR3, at FGFR3 (V555M), on FGFR1 and at FGFR2 was 0.1 to 100 nM throughout.
`C=CC(=O)Nc1ccc2c(c1)c(CC)cn2-c1nc(Nc2cnn(C)c2)ncc1C` [Example 136, N-[3-ethyl-1-[5-methyl-2-[(1-methylpyrazol-4-yl)amino]pyrimidin-4-yl]indol-5-yl]prop-2-enamide]: the half-maximal inhibitory concentration (IC50) in assay [1], in assay [2] and in assay [4] was 0.1 to 100 nM in each case. Moreover, the Kd on FGFR3, on FGFR3 (V555M), on FGFR1 and at FGFR2 was 0.1 to 100 nM throughout.
For `C=CC(=O)Nc1ccc2c(c1)c(C)cn2-c1nc(Nc2cn(C)cn2)ncc1C` [Example 36, N-[3-methyl-1-[5-methyl-2-[(1-methylimidazol-4-yl)amino]pyrimidin-4-yl]indol-5-yl]prop-2-enamide], the IC50 was in the range of 0.1 to 100 nM in assay [1] and 100 to 250 nM in assay [2]. For the same compound, the Kd on FGFR3, on FGFR3 (V555M), on FGFR1 and at FGFR2 was 0.1 to 100 nM each time.
Turning to `C=CC(=O)Nc1ccc2c(c1)c(C)cn2-c1nc(Nc2cnn(CCO)c2)ncc1C` [Example 121, N-[1-[2-[[1-(2-hydroxyethyl)pyrazol-4-yl]amino]-5-methyl-pyrimidin-4-yl]-3-methyl-indol-5-yl]prop-2-enamide], the IC50 in assay [1], in assay [2] and in assay [4] was 0.1 to 100 nM in each case. For the same compound, the equilibrium dissociation constant (Kd) on FGFR3, on FGFR3 (V555M), at FGFR1 and on FGFR2 was 0.1 to 100 nM each time.
With `C=CC(=O)Nc1ccc2c(c1)c(C)cn2-c1nc(Nc2ccnn2C)ncc1F` [Example 69, N-[1-[5-fluoro-2-[(2-methylpyrazol-3-yl)amino]pyrimidin-4-yl]-3-methyl-indol-5-yl]prop-2-enamide], the IC50 in assay [1] and in assay [2] was 0.1 to 100 nM each time. The Kd at FGFR3 was in the range of 0.1 to 100 nM; on FGFR3 (V555M), 0.1 to 100 nM; at FGFR1, 100 to 250 nM; on FGFR2, 0.1 to 100 nM.
`C=CC(=O)Nc1ccc2c(c1)c(C)cn2-c1nc(Nc2cnn(C)c2C)ncc1F` [Example 146, N-[1-[2-[(1,5-dimethylpyrazol-4-yl)amino]-5-fluoro-pyrimidin-4-yl]-3-methyl-indol-5-yl]prop-2-enamide]: the IC50 in assay [1], in assay [4] and in assay [3] was 0.1 to 100 nM each time. Moreover, the Kd on FGFR3, on FGFR3 (V555M), on FGFR1 and at FGFR2 was 0.1 to 100 nM each time.
On to `C=CC(=O)Nc1ccc2c(-c3ccnc(Nc4ccc(N5CCOCC5)cc4)n3)cn(C)c2c1` [Example 53, N-[1-Methyl-3-[2-(4-morpholino-anilino)pyrimidin-4-yl]indol-6-yl]prop-2-enamide], for which the IC50 in assay [1], in assay [4] and in assay [3] was 0.1 to 100 nM in each case. In addition, the Kd on FGFR3, at FGFR3 (V555M), on FGFR1 and at FGFR2 was 0.1 to 100 nM throughout.

The values above are taken from patent publication US20240190849A1, “AMINOPYRIMIDINE COMPOUNDS AND METHODS OF THEIR USE” (TYRA BIOSCIENCES, INC., priority 2021, published 2024).
